Data on two compounds can be found in US20080146555A1, “Uses of Kinase Inhibitors and Compositions Thereof” (GPC Biotech, Inc, priority 2004, published 2008).

The subject of one assay is DNA replication. Description: Inhibition of DNA replication. In kind it is cell-based. As to conditions: 24 hour incubation.
A further assay addresses T1, JNK3 (Homo sapiens, UniProt P53779).
T1 construct: purchased Upstate 14-501
As to the kind of experiment: JNK3 kinase assay. The format is biochemical. The method, then:
• 1. 10× Reaction Buffer: 500 mM Tris-HCl pH 7.5, 1 mM EGTA, 1% 2-mercaptoethanol. • 2. Enzyme Dilution Buffer (EDB): 50 mM Tris-HCl pH 7.5, 0.1 mM EGTA, 0.1% 2-mercaptoethanol, 1 mg/ml BSA, 0.03% Brij-35. • 3. JNK3/SAPK1b, active: Dilute to 4-24 ng/μl with EDB. Use 2.5 μl per assay point. • 4. ATF2 (amino acids 19-96) (Catalog #12-367): Prepare a 1.08 mg/ml stock. Use 2.5 μl per assay point for a final concentration of 3 μM per assay point. • 5. [γ-^32P]ATP: Stock 1 mCi/100 μl (3000 Ci/mmol, obtained from PerkinElmer, Cat. # BLU002A). Make 10 μl aliquots (100 μCi/vial). Before starting the assay, dilute an aliquot to 1 μCi/μl with 90 μl of 75 mM MgCl2 and 500 μM cold ATP in 20 mM MOPS, pH 7.2, 25 mM β-glycerol phosphate, 5 mM EGTA, 1 mM sodium orthovanadate, 1 mM dithiothreitol.
• 1. Add 2.5 μl of 10× Reaction Buffer per assay. • 2. Add 2.5 μl of ATF2 (amino acids 19-96). • 3. Add 2.5 μl (10-60 ng) JNK3/SAPK1b, active. • 4. Add 7.5 μl of sterile, distilled water. • 5. Add 10 μl of the diluted [γ-^32P]ATP mixture. • 6. Incubate for 10 minutes at 30° C. • 7. Transfer a 20 μl aliquot onto the center of a 2 cm×2 cm P81 paper. • 8. Wash the assay squares three times for 5 minutes with 0.75% phosphoric acid. • 9. Wash the assay squares once for 5 minutes with acetone. • 10. Transfer the assay squares to vial and add 5 ml scintillation cocktail. • 11. Read in scintillation counter. Compare cpm of enzyme samples to cpm of control samples that contain background control.

The target in the next assay is Cdk5 (Homo sapiens, UniProt Q00535). As to the kind of experiment: Cdk5 inhibition. In kind it is biochemical. From the text:
Further inhibition results for subject compounds of the invention against other CDKs and further kinases are shown in Table 5, Table II and described in Example 6.
Table 3, Table 4, Table 5 and Table II show the results obtained for inhibition of a broad range of such kinases for subject compounds of the invention.

The target in a further assay is T2, Lck (Homo sapiens, UniProt P06239).
T2 construct: purchased Upstate 14-442
Description: Lck kinase assay. In kind it is biochemical. The method, then:
• 1. Assay Buffer: 200 mM Tris-HCl pH 7.5, 0.4 mM EGTA, 0.4 mM sodium orthovanadate. • 2. Enzyme Dilution Buffer (EDB): 20 mM MOPS, pH 7.5, 1 mM EDTA, 0.01% Brij-35, 5% glycerol, 0.1% β-mercaptoethanol, 1 mg/ml BSA. • 3. Lck, active: Dilute to 10-100 ng/μl with EDB. Use 2.5 μl per assay point. • 4. Src Substrate Peptide (Catalog #12-140): Prepare a 2.5 mM stock with sterile, distilled water. Use 2.5 μl per assay point for a final concentration of 250 μM per assay. • 5. Magnesium/ATP Cocktail (Catalog #20-113): 500 μM cold ATP and 75 mM magnesium chloride in 20 mM MOPS, pH 7.2, 25 mM β-glycerophosphate, 5 mM EGTA, 1 mM Na3VO4, 1 mM dithiothreitol. • 6. [γ-^32P]ATP: Stock 1 mCi/100 μl (3000 Ci/mmol, obtained from PerkinElmer, Catalog #BLU002A). Make 10 μl aliquots (100 μCi/vial). Before starting the assay, dilute the Magnesium/ATP Cocktail 1:1 with sterile, distilled water. Then dilute an aliquot of [γ-^32P]ATP to 1 μCi/μl with 90 μl of the diluted Magnesium/ATP Cocktail. […]
• 1. Add 6.25 μl of Assay Buffer per assay. • 2. Add 2.5 μl (25-250 ng) of Lck, active. • 3. Add 2.5 μl Src Substrate peptide (250 μM). • 4. Add 3.75 μl distilled water. • 5. Add 10 μl of the diluted [γ-^32P]ATP solution. • 6. Incubate for 10 minutes at 30° C. • 7. Transfer a 20 μl aliquot onto the center of a 2 cm×2 cm P81 paper. • 8. Wash assay squares five times with 0.75% phosphoric acid for 5 minutes per wash. • 9. Wash assay squares once with acetone for 5 minutes. • 10. Transfer assay squares to a scintillation vial and add 5 ml scintillation cocktail. • 11. Read in scintillation counter. Compare cpm of enzyme samples to cpm of control samples that contain no substrate (background control).

Setting [1] is: kinase panel, 10 μM ATP, read-out: JNK3 IC50.
Setting [2] is: read-out: MAPK10 Inhibition (IC50).
Where [3] appears, read: read-out: LCK Inhibition (IC50).

Structures can show the parent of a compound that is named as a salt. Where two headings read alike, the source gives them in different places.

T2 sequence (P06239 whole entry): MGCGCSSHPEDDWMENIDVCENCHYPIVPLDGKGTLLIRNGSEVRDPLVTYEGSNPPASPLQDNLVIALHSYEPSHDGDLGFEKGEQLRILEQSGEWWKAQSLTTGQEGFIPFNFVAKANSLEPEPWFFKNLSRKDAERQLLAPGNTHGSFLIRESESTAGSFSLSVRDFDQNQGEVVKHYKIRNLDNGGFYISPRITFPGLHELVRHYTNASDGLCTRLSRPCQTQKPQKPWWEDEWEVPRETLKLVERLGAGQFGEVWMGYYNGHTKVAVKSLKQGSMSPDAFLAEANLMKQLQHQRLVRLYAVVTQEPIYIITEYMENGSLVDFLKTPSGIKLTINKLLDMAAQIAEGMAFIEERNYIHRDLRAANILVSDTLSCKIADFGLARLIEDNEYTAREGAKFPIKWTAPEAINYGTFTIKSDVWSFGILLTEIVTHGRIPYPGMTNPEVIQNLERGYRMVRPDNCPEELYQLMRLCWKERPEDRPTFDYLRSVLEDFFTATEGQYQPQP
T1 sequence (P53779 39-464): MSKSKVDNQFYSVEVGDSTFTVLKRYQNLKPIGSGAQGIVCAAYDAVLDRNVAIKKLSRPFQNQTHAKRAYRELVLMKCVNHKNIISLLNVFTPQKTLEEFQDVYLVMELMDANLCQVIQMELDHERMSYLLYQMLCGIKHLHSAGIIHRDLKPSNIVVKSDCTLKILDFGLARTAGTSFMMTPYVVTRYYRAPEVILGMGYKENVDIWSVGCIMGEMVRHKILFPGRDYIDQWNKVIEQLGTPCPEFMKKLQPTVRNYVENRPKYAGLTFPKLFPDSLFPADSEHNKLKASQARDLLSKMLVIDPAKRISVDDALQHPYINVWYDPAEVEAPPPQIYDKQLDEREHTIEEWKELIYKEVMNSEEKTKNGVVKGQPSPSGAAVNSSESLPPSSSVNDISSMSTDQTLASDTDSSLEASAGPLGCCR
Cdk5, sequence (Q00535 whole entry, species assumed): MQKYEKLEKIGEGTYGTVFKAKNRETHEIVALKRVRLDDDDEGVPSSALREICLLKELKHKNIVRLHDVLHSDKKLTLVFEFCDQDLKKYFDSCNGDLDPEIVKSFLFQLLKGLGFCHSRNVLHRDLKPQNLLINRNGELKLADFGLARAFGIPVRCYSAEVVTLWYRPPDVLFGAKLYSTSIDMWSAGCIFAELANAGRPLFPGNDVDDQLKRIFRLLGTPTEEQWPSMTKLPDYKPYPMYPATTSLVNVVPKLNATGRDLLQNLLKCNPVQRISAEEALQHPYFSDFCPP
Cdk5, sequence (Q15078 whole entry partner, species assumed): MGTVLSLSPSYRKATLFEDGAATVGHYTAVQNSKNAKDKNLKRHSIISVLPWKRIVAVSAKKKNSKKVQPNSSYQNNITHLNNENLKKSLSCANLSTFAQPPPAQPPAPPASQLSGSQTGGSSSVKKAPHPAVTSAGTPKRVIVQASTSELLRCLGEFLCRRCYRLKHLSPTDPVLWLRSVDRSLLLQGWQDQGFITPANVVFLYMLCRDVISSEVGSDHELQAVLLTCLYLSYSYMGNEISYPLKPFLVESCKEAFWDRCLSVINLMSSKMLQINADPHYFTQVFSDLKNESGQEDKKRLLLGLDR

By IC50 is commonly meant the concentration needed to halve the response being measured. With `CC(C)N1CCN(C(=O)COc2ccc(-c3n[nH]c4c3C(=O)c3c(NC(=O)NN5CCOCC5)cccc3-4)cc2)CC1` [Compound A37], the IC50 in the assay on DNA replication is 16 nM; on JNK3 (setting [1]) it was 10 to 100 nM; at JNK3 (setting [2]), less than 50 nM; at Cdk5 it was less than 5 nM; on Lck (setting [3]), less than 50 nM.

Take `COCCN1CCN(Cc2ccc(-c3n[nH]c4c3C(=O)c3c(NC(=O)NN5CCOCC5)cccc3-4)cc2)CC1` [Compound B16, N-[3-(4-{[4-(2-methoxyethyl)piperazinyl]methyl}phenyl)-4-oxoindeno[2,3-d]pyrazol-5-yl](morpholin-4-ylamino)carboxamide dihydrochloride]: the concentration for half-maximal inhibition (IC50) with DNA replication was 10 nM; at JNK3 (setting [1]), less than 100 nM; at JNK3 (setting [2]) it was less than 50 nM; at Cdk5 it was less than 5 nM; at Lck (kinase panel, 10 μM ATP, read-out: Lck (Lymphocyte kinase) IC50) it was less than 100 nM; on Lck (setting [3]), less than 50 nM.
